The source of these data is US12239711B2, “Cereblon ligands and bifunctional compounds comprising the same” (Arvinas Operations, Inc., priority 2014, dated 2025).

In experiment [1] the target is T1, Estrogen Receptor-Alpha (ERα) (Homo sapiens, UniProt P03372).
T1 construct: endogenous in cells; host or cells: MCF-7 (MCF7) cells
T1 sequence (P03372 1-595): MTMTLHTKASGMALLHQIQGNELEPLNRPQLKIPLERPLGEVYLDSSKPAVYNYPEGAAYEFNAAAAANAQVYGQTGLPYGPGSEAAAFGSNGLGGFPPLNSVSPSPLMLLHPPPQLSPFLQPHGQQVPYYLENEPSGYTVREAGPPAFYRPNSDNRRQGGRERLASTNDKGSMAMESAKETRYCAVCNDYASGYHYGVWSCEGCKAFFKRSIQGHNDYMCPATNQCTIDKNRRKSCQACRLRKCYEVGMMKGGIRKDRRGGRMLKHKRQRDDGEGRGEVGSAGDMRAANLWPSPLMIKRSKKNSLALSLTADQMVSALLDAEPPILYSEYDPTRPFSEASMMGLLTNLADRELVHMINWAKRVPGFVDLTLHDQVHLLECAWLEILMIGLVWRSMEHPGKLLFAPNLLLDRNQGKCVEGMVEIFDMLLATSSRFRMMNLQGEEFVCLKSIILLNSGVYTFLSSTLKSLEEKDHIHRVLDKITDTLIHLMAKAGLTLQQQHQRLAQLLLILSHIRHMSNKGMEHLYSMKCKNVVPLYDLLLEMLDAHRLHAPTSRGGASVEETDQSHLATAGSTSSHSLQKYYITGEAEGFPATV
Kind of experiment: Estrogen Receptor-Alpha (ERα) degradation assay in MCF-7 cells (western blot / In-Cell Western). The class given is cell-based. To be noted: for Dmax: MCF7, read-out: ER Dmax; for DC50: read-out: ER DC50. As to the method: 2. Estrogen Receptor-Alpha (ERα) Degradation Assay in MCF-7 Cells Using Western Blot Method for Table 5.
The exemplary novel ERα degraders were assessed for their activity in degrading ERα in MCF-7 cells via western blot. The assay was carried out in the presence of 10% FBS or high percentage of human or mouse serum. Protocols of the western blot assay are described below.
MCF7 cells were grown in DMEM/F12 with 10% FBS and seeded at 24,000 cells per well in 100 μl into 96-well clear tissue culture plates. The following day, the cells were treated with PROTACs in a […] concentration curve with 100 nM being the top concentration and serial dilutions to make the other concentrations (30 nM, 10 nM, 3 nM, 1 nM, and 0.3 nM). At all concentrations, 0.01% DMSO is the final concentration in the well. The following day, the plates are aspirated, washed with 50 μl of cold PBS. The cells are lysed with 50 μl/well 4° C. Cell Lysis Buffer (Catalog #9803; Cell Signaling Technology, Danvers, MA) (20 mM Tris-HCL (pH 7.5), 150 mM NaCl, 1 mM Na2EDTA, 1 mM EGTA, 1% Triton, 2.5 mM sodium pyrophosphate, 1 mM B-glycerophosphate, 1 mM sodium vanadate, 1 ug/ml leupeptin). Lysates were clarified at 16,000×g for 10 minutes, and 2 μg of protein was subjected to SDS-PAGE analysis and followed by immunoblotting according to standard protocols. The antibodies used were ERα (Cell Signaling Technologies Catalog #8644), and Tubulin (Sigma Catalog #T9026; St. Louis, MO). Detection reagents were Clarity Western ECL substrate (Bio-Rad Catalog #170-5060; Hercules, CA).
Alternatively, MCF7 cells were grown in DMEM/F12 with 10% FBS and seeded at 24,000 cells per well in 500 μl in 24-well clear tissue culture plates. The following day, the cells were treated with PROTACs in a 5-point concentration curve (100 nM, 33 nM, 11 nM, 3.7 nM, and 1.2 nM) in the presence of 0.01% DMSO. After 72 hours, the wells are aspirated and washed with 500 μl of PBS. The cells are lysed with 100 μl/well 4° C. Cell Lysis Buffer (Catalog #9803; Cell Signaling Technology, Danvers, MA) (20 mM Tris-HCL (pH 7.5), 150 mM NaCl, 1 mM Na2EDTA, 1 mM EGTA, 1% Triton, 2.5 mM sodium pyrophosphate, 1 mM B-glycerophosphate, 1 mM sodium vanadate, 1 ug/ml leupeptin). Lysates were clarified at 16,000×g for 10 minutes, and 2 μg of protein was subjected to SDS-PAGE analysis and followed by immunoblotting according to standard protocols. The antibodies used were ERα (Cell Signaling Technologies Catalog #8644), and Tubulin (Sigma Catalog #T9026; St. Louis, MO). Detection reagents were Clarity Western ECL substrate (Bio-Rad Catalog #170-5060; Hercules, CA).
3. Estrogen Receptor-Alpha (ERα) Degradation Assay Using In-Cell Western™ Assay for Table 5.
Degradation of ERα by claimed compounds were determined in MCF7 cells using an In-Cell Western™ assay. Briefly, MCF7 cells were plated in 96-well plates (2000 cells per well in 100 μl media) and incubated at 37° C. under an atmosphere of 5% CO2 in a humidified incubator overnight. One-hundred (100) μl of media containing test compound (at 2× concentration) was added to the appropriate wells to provide 11 serially decreasing concentrations (top final concentration, 1 μM then 3-fold less for the next 10 concentrations); a vehicle control (DMSO) was also added for each compound. For each experiment, all compounds were assayed in duplicate plates. Cells were then incubated for 3 or 5 days in the above-mentioned environment. The assay was terminated by removal of media, a single wash with ice-cold PBS and the addition of 50 μl paraformaldehyde (PFA: 4% in PBS). After 15 minutes in PFA at room temperature, the cells were permeabilized in Tris-phosphate-buffered saline with Tween (0.1%) (TBST) supplemented with Triton X-100 (0.5%) for 15 minutes. Cells were then blocked in BSA (TBST with BSA, 3%) for one hour. […]
(Immunoblotting shows a protein as a band on a membrane.)

The test system of experiment [2] is estrogen responsive element/promoter/luciferase reporter gene. Description: ERE Luciferase Assay in T47D-KBluc cells. The class given is cell-based, human. To be noted: 24 hours, luciferase activity, read-out: Target Engagement IC50. On the procedure:
1. ERE Luciferase Assay for Compounds in Table 5.
T47D-KBluc cells (ATCC® #CRL_2865, T47D human breast cancer cells stably transfected with estrogen responsive element/promoter/luciferase reporter gene) were seeded into 96-well white opaque plates in RPMI growth medium supplemented with 10% fetal bovine serum (FBS) and allowed to adhere overnight in a 37° C. humidified incubator. The following day, cells were treated with PROTACs in a 12-point concentration curve (top final concentration of 300 nM with subsequent concentrations being 3-fold less with 2 pM being the lowest concentration in the assay). Each PROTAC was tested independently in two experiments on 96-well plates. After 24 hours, media was removed and lysis buffer was added to the wells. Following lysis, Bright-Glo™ Luciferase Assay Substrate (Promega, Madison WI) was added and the luciferase activity was measured using a Cytation 3 plate reader (BioTek™, Winooski, VT). Each compound was assayed in duplicate and the activity was calculated as IC50 using GraphPad Prism software (San Diego, CA).

Read-outs that look alike come from different tables or passages of the source.

The term Dmax denotes the greatest extent of degradation seen. As usually defined, the DC50 is the concentration at which degradation of the target reaches its halfway point. One may read the IC50 as the point on the concentration scale where inhibition reaches its midpoint. As for `COCCOc1c(N2CCN(CC3CCN(c4ccc([C@@H]5c6ccc(O)cc6CC[C@@H]5c5ccccc5)cc4)CC3)CC2)ccc2c1CN(C1CCC(=O)NC1=O)C2=O` (stereo partly drawn) [compound 11, 3-[5-[4-[[1-[4-[(1R,2S)-6-hydroxy-2-phenyl-tetralin-1-yl]phenyl]-4-piperidyl]methyl]piperazin-1-yl]-4-(2-methoxyethoxy)-1-oxo-isoindolin-2-yl]piperidine-2,6-dione], in experiment [1], the Dmax was in the range of 50 to 75% and the DC50 was in the range of 1 to 10 nM. In addition, the IC50 in experiment [2] (Homo sapiens) was 2 nM.
For `COc1cc(N2CCN(CCCC(F)(F)COc3ccc([C@@H]4c5ccc(O)cc5CC[C@@H]4c4ccccc4)cc3)CC2)cc2c1C(=O)N(C1CCC(=O)NC1=O)C2` (stereo partly drawn) [compound 12, 3-[5-[4-[4,4-difluoro-5-[4-[(1R,2S)-6-hydroxy-2-phenyl-tetralin-1-yl]phenoxy]pentyl]piperazin-1-yl]-7-methoxy-1-oxo-isoindolin-2-yl]piperidine-2,6-dione] the same measures were at least 75%, under 1 nM and 1 nM.
For `COc1cc(N2CCN(CCCCCOc3ccc([C@@H]4c5ccc(O)cc5CC[C@@H]4c4ccccc4)cc3)CC2)cc2c1C(=O)N([C@@H]1CCC(=O)NC1=O)C2` [compound 13, (3R)-3-[5-[4-[5-[4-[(1R,2S)-6-hydroxy-2-phenyl-tetralin-1-yl]phenoxy]pentyl]piperazin-1-yl]-7-methoxy-1-oxo-isoindolin-2-yl]piperidine-2,6-dione] the same measures were at least 75%, under 1 nM and 0.37 nM.
In the same order, the values of `COc1cc(N2CCN(CCCCCOc3ccc([C@@H]4c5ccc(O)cc5CC[C@@H]4c4ccccc4)cc3)CC2)cc2c1C(=O)N([C@H]1CCC(=O)NC1=O)C2` [compound 14, (3S)-3-[5-[4-[5-[4-[(1R,2S)-6-hydroxy-2-phenyl-tetralin-1-yl]phenoxy]pentyl]piperazin-1-yl]-7-methoxy-1-oxo-isoindolin-2-yl]piperidine-2,6-dione] are at least 75%, under 1 nM and 0.49 nM.
Consider `COc1cc(N2CCN(CC3CCN(c4ccc([C@@H]5c6ccc(O)cc6CC[C@@H]5c5ccccc5)cc4)CC3)CC2)cc2c1C(=O)N(C1CCC(=O)NC1=O)C2` (stereo partly drawn) [compound 15, 3-[5-[4-[[1-[4-[(1R,2S)-6-hydroxy-2-phenyl-tetralin-1-yl]phenyl]-4-piperidyl]methyl]piperazin-1-yl]-7-methoxy-1-oxo-isoindolin-2-yl]piperidine-2,6-dione], for which, in experiment [1], the Dmax was at least 75% and the DC50 was under 1 nM. The IC50 in experiment [2] (Homo sapiens) is 1.7 nM.
Consider `COc1cc(N2CCN(C3CC4CC(Oc5ccc([C@@H]6c7ccc(O)cc7CC[C@@H]6c6ccc(F)cc6)cc5)CC4C3)CC2)cc2c1C(=O)N(C1CCC(=O)NC1=O)C2` (stereo partly drawn) [compound 16, 3-[5-[4-[5-[4-[(1R,2S)-2-(4-fluorophenyl)-6-hydroxy-tetralin-1-yl]phenoxy]-1,2,3,3a,4,5,6,6a-octahydropentalen-2-yl]piperazin-l-yl]-7-methoxy-1-oxo-isoindolin-2-yl]piperidine-2,6-dione], for which, in experiment [1], the “ER Dmax” value was “B (50 <= B < 75)” and the DC50 is under 1 nM. In experiment [2], the IC50 was found to be 0.82 nM.
As for `COc1cc(N2CCN(Cc3cccc(COc4ccc([C@@H]5c6ccc(O)cc6CC[C@@H]5c5ccccc5)cc4)n3)CC2)cc2c1C(=O)N(C1CCC(=O)NC1=O)C2` (stereo partly drawn) [compound 17, 3-[5-[4-[[6-[[4-[(1R,2S)-6-hydroxy-2-phenyl-tetralin-1-yl]phenoxy]methyl]-2-pyridyl]methyl]piperazin-1-yl]-7-methoxy-1-oxo-isoindolin-2-yl]piperidine-2,6-dione], in experiment [1], the Dmax was 50 to 75% and the DC50 was in the range of 1 to 10 nM. The IC50 in experiment [2] (Homo sapiens) worked out at 1.5 nM.
Regarding `COc1cc(N2CCN(CC3CCN(c4c(F)cc([C@H]5c6ccc(O)cc6CC[C@H]5c5ccccc5)cc4F)CC3)CC2)cc2c1C(=O)N(C1CCC(=O)NC1=O)C2` (stereo partly drawn) [compound 18, 3-(5-{4-[(1-{2,6-difluoro-4-[(1S,2R)-6-hydroxy-2-phenyl-1,2,3,4-tetrahydronaphthalen-1-yl]phenyl}piperidin-4-yl)methyl]piperazin-1-yl}-7-methoxy-1-oxo-2,3-dihydro-1H-isoindol-2-yl)piperidine-2,6-dione], in experiment [1], the Dmax was in the range of 50 to 75% and the DC50 fell in the range of 1 to 10 nM. Also, the IC50 in experiment [2] (Homo sapiens) was 17.5 nM.
For `COc1cc(N2CCN(CC3CCN(c4c(F)cc([C@@H]5c6ccc(O)cc6CC[C@@H]5c5ccccc5)cc4F)CC3)CC2)cc2c1C(=O)N(C1CCC(=O)NC1=O)C2` (stereo partly drawn) [compound 19, 3-(5-(4-((1-(2,6-difluoro-4-((1R,2S)-6-hydroxy-2-phenyl-1,2,3,4-tetrahydronaphthalen-1-yl)phenyl)piperidin-4-yl)methyl)piperazin-1-yl)-7-methoxy-1-oxoisoindolin-2-yl)piperidine-2,6-dione] the same measures were at least 75%, 1 to 10 nM and 4.5 nM.
For `O=C1CCC(N2Cc3cc(N4CCN(CCCCCOc5ccc([C@@H]6c7ccc(O)cc7CC[C@@H]6c6ccccc6)cc5)CC4)cc(OC(F)F)c3C2=O)C(=O)N1` (stereo partly drawn) [compound 20, 3-[7-(difluoromethoxy)-5-[4-[5-[4-[(1R,2S)-6-hydroxy-2-phenyl-tetralin-1-yl]phenoxy]pentyl]piperazin-1-yl]-1-oxo-isoindolin-2-yl]piperidine-2,6-dione] the same measures were 50 to 75%, 1 to 10 nM and 1.2 nM.
